According to ChEMBL document CHEMBL3286379, “Design and synthesis of pyrimidine molecules endowed with thiazolidin-4-one as new anticancer agents” (Eur J Med Chem, 2014):

What was measured:
SN12C = assay: Growth inhibition of human SN12C cells after 48 hrs by sulforhodamine B assay; type: functional
T47D = assay: Growth inhibition of human T47D cells after 48 hrs by sulforhodamine B assay; type: functional
MDA-MB-231 = assay: Growth inhibition of human MDA-MB-231 cells after 48 hrs by sulforhodamine B assay; type: functional; settings: MDA-MB-231, 48 h
NCI-H460 = assay: Growth inhibition of human NCI-H460 cells after 48 hrs by sulforhodamine B assay; type: functional; settings: NCI-H460, 48 h
[1] = Growth inhibition of human MOLT4 cells after 48 hrs by sulforhodamine B assay; type: functional; settings: MOLT-4, 48 h
RPMI-8226 = assay: Growth inhibition of human RPMI8226 cells after 48 hrs by sulforhodamine B assay; type: functional; settings: RPMI-8226, 48 h
Rattus norvegicus = assay: Hepatotoxicity in rat assessed as SGPT level at 0.12 mg/kg, po after 12 days (reference value: 31.17 +/- 0.39 U/mL); type: toxicity, organism-based; parameters: dose 0.12 mg/kg, route oral; settings: in vivo, 288 h
[2] = Growth inhibition of human SF539 cells after 48 hrs by sulforhodamine B assay; type: functional; settings: SF-539, 48 h
K562 = assay: Growth inhibition of human K562 cells after 48 hrs by sulforhodamine B assay; type: functional; settings: K562, 48 h
HCT-116 = assay: Growth inhibition of human HCT116 cells after 48 hrs by sulforhodamine B assay; type: functional; settings: HCT-116, 48 h
DU-145 = assay: Growth inhibition of human DU145 cells after 48 hrs by sulforhodamine B assay; type: functional; settings: DU-145, 48 h
[3] = read-out: LC50 (the source's name)
[4] = read-out: pLC50 (the source's name) (converted)

Nc1nc(-c2ccccc2Cl)cc(-c2ccc(Cl)cc2Cl)n1
GI50 (SN12C; read-out: GI50): 13.1 µM
CC50 (SN12C; [3]): > 100 µM
TGI (SN12C; read-out: TGI): > 100 µM
GI50 (SN12C; read-out: pGI50 (converted)): 13.2 µM
CC50 (SN12C; [4]): > 100 µM
TGI (SN12C; read-out: pTGI): > 100 µM
GI50 (T47D; read-out: GI50): 6.58 µM
CC50 (T47D; [3]): > 100 µM
TGI (T47D; read-out: TGI): > 100 µM
GI50 (T47D; read-out: pGI50 (converted)): 6.61 µM
CC50 (T47D; [4]): > 100 µM
TGI (T47D; read-out: pTGI): > 100 µM
GI50 (MDA-MB-231; read-out: GI50): 9.3 µM
CC50 (MDA-MB-231; [3]): > 100 µM
TGI (MDA-MB-231; read-out: TGI): > 100 µM
GI50 (MDA-MB-231; read-out: pGI50 (converted)): 9.33 µM
CC50 (MDA-MB-231; [4]): > 100 µM
TGI (MDA-MB-231; read-out: pTGI): > 100 µM
GI50 (NCI-H460; read-out: GI50): 3.31 µM
CC50 (NCI-H460; [3]): > 100 µM
TGI (NCI-H460; read-out: TGI): 23.1 µM
GI50 (NCI-H460; read-out: pGI50 (converted)): 3.31 µM
CC50 (NCI-H460; [4]): > 100 µM
TGI (NCI-H460; read-out: pTGI (converted)): 22.9 µM
GI50 ([1]; read-out: GI50): 4.82 µM
CC50 [1, 3]: > 100 µM
TGI ([1]; read-out: TGI): > 100 µM
GI50 ([1]; read-out: pGI50 (converted)): 4.79 µM
CC50 [1, 4]: > 100 µM
TGI ([1]; read-out: pTGI): > 100 µM
GI50 (RPMI-8226; read-out: GI50): 3.1 µM
CC50 (RPMI-8226; [3]): > 100 µM
TGI (RPMI-8226; read-out: TGI): 17.6 µM
GI50 (RPMI-8226; read-out: pGI50 (converted)): 3.09 µM
CC50 (RPMI-8226; [4]): > 100 µM
TGI (RPMI-8226; read-out: pTGI (converted)): 17.4 µM
Activity (Rattus norvegicus): 29.11 U/ml
GI50 ([2]; read-out: GI50): 7.39 µM
CC50 [2, 3]: > 100 µM
TGI ([2]; read-out: TGI): 67 µM
GI50 ([2]; read-out: pGI50 (converted)): 7.41 µM
CC50 [2, 4]: > 100 µM
TGI ([2]; read-out: pTGI (converted)): 67.6 µM
GI50 (K562; read-out: GI50): 3.97 µM
CC50 (K562; [3]): > 100 µM
TGI (K562; read-out: TGI): > 100 µM
GI50 (K562; read-out: pGI50 (converted)): 3.98 µM
CC50 (K562; [4]): > 100 µM
TGI (K562; read-out: pTGI): > 100 µM
GI50 (HCT-116; read-out: GI50): 4.27 µM
CC50 (HCT-116; [3]): > 100 µM
TGI (HCT-116; read-out: TGI): > 100 µM
GI50 (HCT-116; read-out: pGI50 (converted)): 4.27 µM
CC50 (HCT-116; [4]): > 100 µM
TGI (HCT-116; read-out: pTGI): > 100 µM
GI50 (DU-145; read-out: GI50): 5.33 µM
CC50 (DU-145; [3]): > 100 µM
TGI (DU-145; read-out: TGI): 70.1 µM
GI50 (DU-145; read-out: pGI50 (converted)): 5.37 µM
CC50 (DU-145; [4]): > 100 µM
TGI (DU-145; read-out: pTGI (converted)): 70.8 µM
